Experimental data as given in PubChem BioAssay AID1963873 (Molecular Pharmacology Branch, DTP, NCI, 2024).
“And” between values parts separate entries of the source, which are not always exact repeats. Equal values may be shown once.

Tested on: 276233-004-R-J1-PDC KRAS spheroids with HUVEC/MSC, viability
Assay: Anticancer human tumor 276233-004-R-J1-PDC patient-derived colon adenocarcinoma cell line growth inhibition [KRAS2]
Conditions: for viability, T/C: stronger effect = lower value
Excerpt: Multicellular complex tumor spheroid response to RAS pathway inhibitors in combination with a targeted agents in patient-derived cell lines with oncogenic KRAS variants from multiple cancer types
A high-throughput screen of multi-cell type tumor spheroids was designed to identify active combinations of targeted small molecules and KRAS pathway inhibitors. Complex spheroids include a stromal component modeled by human endothelial cells (HUVEC) and fibroblasts modeled by human mesenchymal stem cells (MSCs). The concentration ranges selected for each drug and investigational agent were based upon clinically achievable concentrations if the clinical Cmax of the agent was known.
Compounds. The drugs and investigational agents: BI-3406 (NSC825286), BAY-293 (NSC824723), batoprotafib (TNO155; NSC825523), sotorasib (AMG 510; NSC818433), MRTX1257 (NSC819558), elimusertib (BAY 1895344; NSC800525), molibresib (GSK525762; NSC774829), temuterkib (LY3214996; NSC803410), venetoclax (NSC766270), alisertib (NSC759677), olaparib (NSC753686), talazoparib (NSC767125), erdafitinib (NSC781556), ipatasertib (NSC767898), cabozantinib (NSC761068), nintedanib (NSC756659), abemaciclib (NSC768073), docetaxel (NSC628503), trametinib (NSC758246), and sapanisertib (NSC764658) were obtained from the National Cancer Institute (NCI) Developmental Therapeutics Program Chemical Repository. The FDA-approved anticancer drug set is available from the Developmental Therapeutics Program. […] The stock solutions were prepared in dimethyl sulfoxide (DMSO, Sigma-Aldrich, St. Louis, MO, cat. D2650) at 800-fold the tested concentration and stored at -70 degrees C prior to their use. All drugs and investigational agents were tested over a range starting from a high concentration at or near the clinical Cmax and decreasing in half-log increments. If the clinical Cmax for an agent had not been determined, the highest concentration tested was 10 microM.
Cell Culture. All cells were maintained in an incubator at 37 degrees C and 5% CO2 with 95% humidity. The PDC lines were cultured according to standard operating procedures established by the NCI PDMR (https://pdmr.cancer.gov/sops/default.htm). Briefly, all PDCs were thawed and cultured in Matrigel-coated flasks prepared with a working solution of 1X Ham's F-12 nutrient mix, without supplementation (Invitrogen, Waltham, MA, cat. 11765054), 100 U/mL penicillin-streptomycin (Invitrogen, cat. 15140122), and 2.5% Matrigel (Corning Inc., Corning, NY, cat. 354248) for the first three passages. All PDCs were cultured in complete DMEM/F-12 media containing advanced DMEM/F-12 (Invitrogen, cat. 12634028), 4.9% defined fetal bovine serum, heat inactivated (HyClone Laboratories Inc., Logan, UT, cat. SH30070.03HI), 389 ng/mL hydrocortisone (Sigma-Aldrich, cat. H4001), 9.7 ng/mL human EGF recombinant protein (Invitrogen, cat. PHG0313), 23.4 microg/mL adenine (Sigma-Aldrich, cat. A2786), 97.3 U/mL penicillin-streptomycin (Invitrogen, cat. 15140122), 1.9 mM L-glutamine (Invitrogen, cat. 25030081), and 9.7 microM Y-27632 dihydrochloride (Tocris Bioscience, Bristol, United Kingdom, cat. 1254). The PDCs were cultured in complete DMEM/F12 media without 9.7 microM Y-27632 dihydrochloride for at least two passages prior to the screen. The established cell line HOP-62 was cultured in RPMI 1640 medium, HEPES (Invitrogen, cat. 22400105) with 10% defined fetal bovine serum (HyClone Laboratories Inc., cat. SH30070.03) and 2 mM L-glutamine (Invitrogen, cat. 25030081). The pooled donor HUVEC were cultured in endothelial cell growth medium 2 (PromoCell, Heidelberg, Germany, cat. C-22011) and the hMSC were cultured in mesenchymal stem cell growth medium 2 (PromoCell, cat. C-28009). For all experiments, HUVEC and hMSC were used at passages </=5, while the malignant cell lines were used at passages </=15. […]

[1] = curve of first compound, second compound 0.1 µM
[2] = curve of first compound, second compound 0.316 µM
[3] = curve of first compound, second compound 1 µM
[4] = curve of first compound, second compound 3.16 µM
[5] = curve of first compound, second compound 10 µM
[6] = second compound 0.1 µM, first compound 0.0316 µM
[7] = second compound 0.1 µM, first compound 0.1 µM
[8] = second compound 0.1 µM, first compound 0.316 µM
[9] = second compound 0.1 µM, first compound 1 µM
[10] = second compound 0.1 µM, first compound 3.16 µM
[11] = second compound 0.1 µM, first compound 10 µM
[12] = second compound 0.316 µM, first compound 0.0316 µM
[13] = second compound 0.316 µM, first compound 0.1 µM
[14] = second compound 0.316 µM, first compound 0.316 µM
[15] = second compound 0.316 µM, first compound 1 µM
[16] = second compound 0.316 µM, first compound 3.16 µM
[17] = second compound 0.316 µM, first compound 10 µM
[18] = second compound 1 µM, first compound 0.0316 µM
[19] = second compound 1 µM, first compound 0.1 µM
[20] = second compound 1 µM, first compound 0.316 µM
[21] = second compound 1 µM, first compound 1 µM
[22] = second compound 1 µM, first compound 3.16 µM
[23] = second compound 1 µM, first compound 10 µM
[24] = second compound 3.16 µM, first compound 0.0316 µM
[25] = second compound 3.16 µM, first compound 0.1 µM
[26] = second compound 3.16 µM, first compound 0.316 µM
[27] = second compound 3.16 µM, first compound 1 µM
[28] = second compound 3.16 µM, first compound 3.16 µM
[29] = second compound 3.16 µM, first compound 10 µM
[30] = second compound 10 µM, first compound 0.0316 µM
[31] = second compound 10 µM, first compound 0.1 µM
[32] = second compound 10 µM, first compound 0.316 µM
[33] = second compound 10 µM, first compound 1 µM
[34] = second compound 10 µM, first compound 3.16 µM
[35] = second compound 10 µM, first compound 10 µM
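Note: cells exposed to agents for seven days before viability read.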
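Throughout, for viability, T/C: 100% = DMSO vehicle control wells and lower values mean fewer viable cells.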

Structure (SMILES)	IC50 [1]	IC50 [2]	IC50 [3]	IC50 [4]	IC50 [5]	viability, T/C [6]	viability, T/C [7]	viability, T/C [8]	viability, T/C [9]	viability, T/C [10]	viability, T/C [11]	viability, T/C [12]	viability, T/C [13]	viability, T/C [14]	viability, T/C [15]	viability, T/C [16]	viability, T/C [17]	viability, T/C [18]	viability, T/C [19]	viability, T/C [20]	also measured
O=C(c1cc(Cc2n[nH]c(=O)c3ccccc23)ccc1F)N1CCN(C(=O)C2CC2)CC1 + COc1cc2nc(C)nc(NC(C)c3cc(N)cc(C(F)(F)F)c3)c2cc1OC1CCOC1	> 10000 nM	> 10000 nM	> 10000 nM	> 10000 nM	110 nM	89.7%	102%	92.5%	96%	103%	86.5%	91.1%	100%	98%	88.9%	87.3%	75.8%	102%	111%	96.8%	viability, T/C [21]: 89.2%; viability, T/C [22]: 96.8%; viability, T/C [23]: 86.3%; viability, T/C [24]: 71.4%; viability, T/C [25]: 77.8%; viability, T/C [26]: 85.8%; viability, T/C [27]: 66%; viability, T/C [28]: 68.3%; viability, T/C [29]: 58%; viability, T/C [30]: 98.9%; viability, T/C [31]: 45.8%; viability, T/C [32]: 40.9%; viability, T/C [33]: 35.5%; viability, T/C [34]: 26%; viability, T/C [35]: 21.6%
CC1COCCN1c1cc(-c2ccnn2C)c2ccnc(-c3ccn[nH]3)c2n1 (stereo not drawn)																					viability, T/C (compound 0.01 µM): 96.2% [middle of 5 runs]; viability, T/C (compound 0.1 µM): 82% [middle of 5 runs]; IC50 (curve of compound): > 3160 nM and 735 nM
O=C(c1cc(Cc2n[nH]c(=O)c3ccccc23)ccc1F)N1CCN(C(=O)C2CC2)CC1 + CC1OCC2(CCN(c3cnc(Sc4ccnc(N)c4Cl)c(N)n3)CC2)C1N	> 10000 nM	> 10000 nM	> 10000 nM	233 nM	70.7 nM	75.3%	84.9%	85.4%	81.8%	79.4%	62.5%	76.6%	78.5%	65.7%	71.7%	64.9%	65%	95.6%	67.9%	59.4%	viability, T/C [21]: 54.2%; viability, T/C [22]: 51%; viability, T/C [23]: 52.9%; viability, T/C [24]: 54.4%; viability, T/C [25]: 52.8%; viability, T/C [26]: 45.1%; viability, T/C [27]: 50.6%; viability, T/C [28]: 44.4%; viability, T/C [29]: 43.3%; viability, T/C [30]: 55.9%; viability, T/C [31]: 47.1%; viability, T/C [32]: 41.4%; viability, T/C [33]: 42.7%; viability, T/C [34]: 37.5%; viability, T/C [35]: 36.6%
